Laboratory results taken from ChEMBL document CHEMBL5728227, “Substituted pyrazole derivatives as selective CDK12/13 inhibitors” (2021).

Biological target: Cyclin-dependent kinase 7 (Homo sapiens, UniProt P50613)
Experiment: Biochemical Assay for CDK7: The inhibitory activity of the test compounds was assessed by the LANCE TR-FRET assay, which detects the ATP-dependent phosphorylation of an ULight-myelin basic protein (MBP) substrate peptide (100 nM) by CDK7 (10 nM). Briefly, the enzyme reaction was run in reaction buffer (20 mM HEPES (pH 7.5), 10 mM MgCl2, 0.01% Triton x, 100 μM Sodium Orthovanadate, 1 mM DTT). The assay was performed in 384-well plate. The end concentration of the ATP substrate was 1 mM/100 μM, and that of the ULight-MBP substrate peptide was 100 nM, and of CDK7 was 10 nM. Pre-incubation of the compound and enzyme was performed for 60 min at room temperature. After 60 min incubation at room temperature, the reaction was terminated by the addition of 40 mM EDTA and 1 nM Eu-labeled anti-phospho-MBP-binding protein antibody in the buffer. Time-resolved fluorescence (excitation, 320 nm; emission donor, 615 nm; emission acceptor, 665 nm) was monitored by using 2030 multilabel reader Victor5 (PerkinElmer). The readout was calculated as (acceptor counts/donor counts)×1000. The IC50 values were derived by fitting a sigmoidal dose-response curve to a plot of assay readout over inhibitor concentration. All fits were computed with the program Prism 5.03 (Graph Pad Software, San Diego, Calif.).

Sequence of Cyclin-dependent kinase 7 (P50613 whole entry): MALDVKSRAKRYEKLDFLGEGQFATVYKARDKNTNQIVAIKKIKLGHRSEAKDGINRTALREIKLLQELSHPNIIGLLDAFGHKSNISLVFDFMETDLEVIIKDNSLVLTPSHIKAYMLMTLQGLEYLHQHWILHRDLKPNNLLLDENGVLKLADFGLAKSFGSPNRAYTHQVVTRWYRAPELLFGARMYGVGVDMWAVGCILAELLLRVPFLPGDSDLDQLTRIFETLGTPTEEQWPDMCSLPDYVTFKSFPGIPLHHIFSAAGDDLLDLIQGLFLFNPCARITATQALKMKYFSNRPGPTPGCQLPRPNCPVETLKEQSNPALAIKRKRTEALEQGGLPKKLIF

IC50: 1730 nM
Structure (SMILES): C=CC(=O)N1CCC=C(c2ccc(CC(=O)Nc3cc(C4CC4)[nH]n3)cn2)C1
